Laboratory results taken from publication PMC10629583, “Specific inhibition of an anticancer target, polo-like kinase 1, by allosterically dismantling its mechanism of substrate recognition” (Proceedings of the National Academy of Sciences of the …, 2023).
Entries after “also recorded” stand apart in the source; their conditions may differ. [ ]: non-standard residue; d: D form. The star is where a group is joined. FITC = O=C1OC2(c3ccc(O)cc3Oc3cc(O)ccc32)c2ccc(NC(=S)*)cc21; pT = C[C@@H](OP(=O)(O)O)[C@H](N)C(=O)O; Ahx = NCCCCCC(=O)O

Tests used:
[1] = target: T1, PBD1 F559D mutant (Homo sapiens, UniProt P53350, F559D); assay: FP-based binding/inhibition assay, PBD1 F559D; details: FP binding, PBD1 F559D vs WT
T1 construct: constructs expressing PBD1 (residues 345–603) WT (pKM7650), F559D (pKM7878); His; TEV site (N); made in house; host or cells: bacteria (E. coli)
Protocol: (§1) FP assays were carried out essentially as described previously ([35], [36]). FITC-conjugated ligands (15 nM) were mixed with PBDs at their EC85 concentrations. All the samples were analyzed approximately 30 min after reaction in a 384-well format using the SpectraMax Paradigm multimode microplate detection platform (Molecular Devices). Data were analyzed after carrying out at least three independent experiments using GraphPad Prism software version 8.
(§2) Fig. S4. Generation of F559 mutants for in vitro and cell-based assays in Fig. 4. (A) SDS-PAGE showing the proteins used for the FP assays in Fig. 4 A and B. CBB, a Coomassie Brilliant Blue– stained gel. (B) Summary of Kd and EC85 values for PBD1 WT and mutants. The Kd values for PBD1 WT and mutants were determined after extrapolating them from the binding curves as the concentration at which 50% of the FITC-Ahx-DPPLHSpTAI-NH2 are PBD1-bound. The EC85 values indicate the effective concentration of 85% of the maximal concentration calculated for each protein. The FP values were obtained 30 minutes after incubation. For the F559K and F559R mutants, we were not able to determine the EC85 values and therefore used 2 µM of these proteins for the assays in Fig. 4B. N.D., not determined. […]

[2] = target: T2, PBD1 F559E mutant (Homo sapiens, UniProt P53350, F559E); assay: FP-based binding/inhibition assay, PBD1 F559E; details: FP binding, PBD1 F559E vs WT
T2 construct: constructs expressing PBD1 (residues 345–603) WT (pKM7650), F559D (pKM7878), F559E (pKM7879); His; TEV site (N); made in house; host or cells: bacteria (E. coli)
Protocol: as §1, §2

[3] = target: T3, PBD1 F559K mutant (Homo sapiens, UniProt P53350, F559K); assay: FP-based binding/inhibition assay, PBD1 F559K; details: FP binding, PBD1 F559K vs WT
T3 construct: constructs expressing PBD1 (residues 345–603) WT (pKM7650); His; TEV site (N); made in house; host or cells: bacteria (E. coli)
Protocol: as §1, §2

[4] = target: T4, PBD1 F559R mutant (Homo sapiens, UniProt P53350, F559R); assay: FP-based binding/inhibition assay, PBD1 F559R; details: FP binding, PBD1 F559R vs WT
T4 construct: constructs expressing PBD1 (residues 345–603) WT (pKM7650); His; TEV site (N); made in house; host or cells: bacteria (E. coli)
Protocol: as §1, §2

[5] = tested on: cultured cells; parameters: method as in PMID 31685831; details: cited from earlier work
[6] = target: T5, full-length Plk1 (Homo sapiens, UniProt P53350); assay: ELISA-based PBD1-binding inhibition assay; details: total lysates from HEK293A cells expressing full-length Plk1; biotinylated PBIP1 p-T78 peptide; read-out: Anti-Plk1 (full length) ELISA (IC50) Mean ± SEM
T5 construct: expressed in transfected cells; host or cells: HEK293A cells infected with adenovirus; total lysate

[7] = tested on: L363 cells; assay: MTS cell viability assay, L363 cells; assay type: cell-based; details: 48 h treatment
[8] = target: T6, Plk1 PBD (PBD1) (Homo sapiens, UniProt P53350); assay: FP-based inhibition assay, PBD1; assay type: binding; details: FP, bacterially expressed purified PBD, FITC-ligand 15 nM, PBD at EC85; read-out: PBD1 IC50 ± SD
T6 construct: constructs expressing PBD1 (residues 345–603) WT (pKM7650); His; TEV site (N); made in house; host or cells: bacteria (E. coli)
Protocol: (§3) FP assays were carried out essentially as described previously ([35], [36]). […] All the samples were analyzed approximately 30 min after reaction in a 384-well format using the SpectraMax Paradigm multimode microplate detection platform (Molecular Devices). Data were analyzed after carrying out at least three independent experiments using GraphPad Prism software version 8.

[9] = target: T7, Plk2 PBD (PBD2) (Homo sapiens, UniProt Q9NYY3); assay: FP-based inhibition assay, PBD2; assay type: binding; details: bacterially expressed purified PBD, FITC-ligand 15 nM, PBD at EC85
T7 construct: Purification of PBD2-His (355–685) (pKM3358) and its S652F mutant (pKM7980); His (C); made in house; host or cells: bacteria (E. coli)
T7 sequence (Q9NYY3 355-685): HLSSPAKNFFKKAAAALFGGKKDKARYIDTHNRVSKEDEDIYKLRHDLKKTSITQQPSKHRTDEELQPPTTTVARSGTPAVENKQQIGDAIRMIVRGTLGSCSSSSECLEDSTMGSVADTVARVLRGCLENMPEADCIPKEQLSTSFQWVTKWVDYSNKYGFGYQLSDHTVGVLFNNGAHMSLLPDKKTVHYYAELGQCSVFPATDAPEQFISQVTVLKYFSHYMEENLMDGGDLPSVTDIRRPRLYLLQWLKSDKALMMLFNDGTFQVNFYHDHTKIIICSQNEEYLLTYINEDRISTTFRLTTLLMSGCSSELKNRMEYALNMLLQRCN
Protocol: as §3

[10] = target: T8, Plk3 PBD (PBD3) (Homo sapiens, UniProt Q9H4B4); assay: FP-based inhibition assay, PBD3; assay type: binding; details: bacterially expressed purified PBD, FITC-ligand 15 nM, PBD at EC85
T8 construct: MBP-PBD3-His (335–646) (pKM3359) and its A612F (pKM7981); His (C); made in house; host or cells: bacteria (E. coli)
T8 sequence (Q9H4B4 335-646): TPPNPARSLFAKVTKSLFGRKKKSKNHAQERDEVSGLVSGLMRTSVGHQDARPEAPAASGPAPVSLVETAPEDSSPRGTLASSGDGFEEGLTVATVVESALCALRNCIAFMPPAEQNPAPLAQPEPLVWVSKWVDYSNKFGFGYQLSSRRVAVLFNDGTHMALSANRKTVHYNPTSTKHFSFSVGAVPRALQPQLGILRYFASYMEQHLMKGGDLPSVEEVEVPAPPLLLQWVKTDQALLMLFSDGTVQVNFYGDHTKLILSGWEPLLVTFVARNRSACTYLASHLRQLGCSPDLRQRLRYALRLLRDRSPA
Protocol: as §1

[11] = target: BZP Rat brain site; assay: PDSP off-target binding screen; details: read-out: Secondary screen Ki
Excerpt: (§4) PDSP no. Compound Interactions (Ki, µM)
(§5) 60477 Allopole-A None observed.
(§6) trigger a secondary screen at that receptor.

[12] = Conversion of prodrug 6 to active species 5 by GSH (HPLC); assay type: physicochemical; details: room temperature, after 5 min
Protocol: To a solution of 6 (1.0 mg, 2.4 µmol) in 0.800 mL of MeOH-d4 was added a solution of glutathione (1.1 mg, 3.6 µmol) and sodium carbonate (0.76 mg, 7.2 µmol) in 0.200 mL of D2O. The reaction was stirred at room temperature and sampled at 5, 10, 20, and 60 min. Aliquots were flash-frozen on dry ice and always stored at −80 °C. HPLC and mass spectrometry were used to analyze the reaction mixtures.
HPLC analysis of both pure 6 (rt = 13.95 min) and 5 (rt = 11.16 min) using the method of acetonitrile 05 to 95% and 10 mM triethylammonium acetate 95 to 5% in 20 min gave standards to compare against the reaction mixture. The HPLC analysis of the reaction mixture, compared to standards, was performed using a Hewlett−Packard 1100 HPLC equipped with an Agilent Eclipse 5 µm XDB-C18 analytical column (50 mm × 4.6 mm; Agilent Technologies Inc.).

[13] = Solubility in PBS (imaging of insoluble particles, dynamic light scattering); assay type: physicochemical; details: PBS buffer (pH 7.4)
Protocol: All samples were analyzed after adjusting the concentration to 100 μM solution in the PBS buffer (pH 7.4) containing 1% DMSO. The measurements were carried out at 25 °C using the DynaPro NanoStar system (Wyatt Technology). The intensity of the scattered light was measured as a function of time, and the resulting data were used to calculate the size and distribution of the particles in the sample. Collected data were analyzed using the DYNAMICS software to calculate the mean size and polydispersity index of the particles in the sample. At least three repeat measurements were performed to ensure that the results were accurate and reproducible.
Fig. S1. Solubility and activity of Allopole and its related compounds. (A) Images showing insoluble
particles of 200 µM of the indicated compounds dissolved in the PBS buffer. The aggregates of […]

[14] = tested on: 45 receptors and channels; assay: PDSP off-target screen (whole panel); assay type: binding, human
Excerpt: as §4, §5, §6

[15] = tested on: Flag-Plk1 K82M; assay: Pulldown with biotinylated compound 22, Plk1; assay type: binding; details: streptavidin agarose, anti-Flag immunoblot
Protocol: (§7) A mixture of total cell lysates expressing Flag-Plk1 K82M (pKL577), Flag-Plk2 K108M (pKL1416), or Flag-Plk3 K52R (pKM203) (a gift from Wei Dai, New York University School of Medicine, NY) was prepared in TBSN buffer and incubated with a biotinylated Allopole-A-derivative, 22, or biotin alone. The resulting samples were then subjected to pulldown analyses with streptavidin agarose bead (Thermo Fisher Scientific), after which they were separated by SDS-PAGE and immunoblotted with anti-Flag antibody.

[16] = tested on: Flag-Plk2 K108M; assay: Pulldown with biotinylated compound 22, Plk2; assay type: binding; details: streptavidin agarose, anti-Flag immunoblot
Protocol: as §7

[17] = target: T9, Flag-Plk3 K52R (Homo sapiens, UniProt Q9H4B4, K91R); assay: Pulldown with biotinylated compound 22, Plk3; assay type: binding; details: streptavidin agarose, anti-Flag immunoblot
T9 construct: expressed in transfected cells; host or cells: HEK293 cells; mixed total lysates
Protocol: as §7

T5 sequence (P53350 whole entry): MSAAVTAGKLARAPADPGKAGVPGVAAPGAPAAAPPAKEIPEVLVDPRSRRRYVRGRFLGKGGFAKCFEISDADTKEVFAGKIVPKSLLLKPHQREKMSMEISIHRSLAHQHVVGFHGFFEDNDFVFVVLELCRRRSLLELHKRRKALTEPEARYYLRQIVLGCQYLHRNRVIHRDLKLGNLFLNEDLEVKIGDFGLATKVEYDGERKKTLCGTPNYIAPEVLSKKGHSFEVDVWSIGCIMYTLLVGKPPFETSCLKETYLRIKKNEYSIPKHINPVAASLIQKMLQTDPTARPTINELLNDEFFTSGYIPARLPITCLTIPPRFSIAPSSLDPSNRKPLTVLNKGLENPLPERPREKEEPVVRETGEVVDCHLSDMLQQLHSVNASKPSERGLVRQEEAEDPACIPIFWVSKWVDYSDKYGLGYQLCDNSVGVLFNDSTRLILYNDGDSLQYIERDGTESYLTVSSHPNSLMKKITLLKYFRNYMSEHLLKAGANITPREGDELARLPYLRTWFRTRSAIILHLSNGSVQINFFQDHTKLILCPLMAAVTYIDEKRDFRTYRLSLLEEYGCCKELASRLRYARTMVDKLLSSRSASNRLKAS
T3 sequence (P53350 345-603 F559K): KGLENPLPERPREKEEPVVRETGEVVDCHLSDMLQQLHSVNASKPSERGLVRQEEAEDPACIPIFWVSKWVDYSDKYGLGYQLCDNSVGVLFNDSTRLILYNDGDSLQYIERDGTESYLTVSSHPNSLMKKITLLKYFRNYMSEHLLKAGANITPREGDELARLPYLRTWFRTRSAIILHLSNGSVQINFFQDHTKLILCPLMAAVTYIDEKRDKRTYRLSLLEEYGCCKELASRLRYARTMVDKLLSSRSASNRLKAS
T9 sequence (Q9H4B4 40-646 K91R limits assumed): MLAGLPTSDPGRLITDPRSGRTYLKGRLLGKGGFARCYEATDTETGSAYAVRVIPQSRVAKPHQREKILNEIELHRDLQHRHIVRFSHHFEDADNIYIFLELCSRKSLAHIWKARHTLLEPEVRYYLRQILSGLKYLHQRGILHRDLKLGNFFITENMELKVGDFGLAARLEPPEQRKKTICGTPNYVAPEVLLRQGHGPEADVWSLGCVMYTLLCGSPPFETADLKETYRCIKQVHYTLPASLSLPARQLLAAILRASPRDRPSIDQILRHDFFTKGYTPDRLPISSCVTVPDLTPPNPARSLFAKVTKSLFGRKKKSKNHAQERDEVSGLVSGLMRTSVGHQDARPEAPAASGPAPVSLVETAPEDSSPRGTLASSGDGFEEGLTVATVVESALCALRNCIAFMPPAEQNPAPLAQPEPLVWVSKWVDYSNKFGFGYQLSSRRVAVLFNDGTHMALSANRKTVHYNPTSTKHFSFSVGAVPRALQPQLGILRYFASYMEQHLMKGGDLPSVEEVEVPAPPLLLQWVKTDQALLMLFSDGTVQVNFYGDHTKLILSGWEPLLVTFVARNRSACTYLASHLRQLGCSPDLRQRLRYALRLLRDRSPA
T2 sequence (P53350 345-603 F559E): as the sequence (P53350 345-603 F559K) above, with K215E counted along it
T1 sequence (P53350 345-603 F559D): as the sequence (P53350 345-603 F559K) above, with K215D counted along it
T6 sequence (P53350 345-603): as the sequence (P53350 345-603 F559K) above, with K215F counted along it
T4 sequence (P53350 345-603 F559R): as the sequence (P53350 345-603 F559K) above, with K215R counted along it

FITC-Ahx-DPPLHSpTAI-NH2 ({FITC-Ahx}-DPPLHS[pT]AI-NH2; SMILES CC[C@H](C)[C@H](NC(=O)[C@H](C)NC(=O)[C@@H](NC(=O)[C@H](CO)NC(=O)[C@H](Cc1c[nH]cn1)NC(=O)[C@H](CC(C)C)NC(=O)[C@@H]1CCCN1C(=O)[C@@H]1CCCN1C(=O)[C@H](CC(=O)O)NC(=O)CCCCCNC(=S)Nc1ccc2c(c1)C(=O)OC21c2ccc(O)cc2Oc2cc(O)ccc21)[C@@H](C)OP(=O)(O)O)C(N)=O) [FITC-conjugated phosphopeptide, FP probe, reference compound]
Decrease in affinity of the FITC-phosphopeptide compared to WT [1]: 1.7 fold
Decrease in affinity of the FITC-phosphopeptide compared to WT [2]: approximately sevenfold decreased affinity
Decrease in affinity of the FITC-phosphopeptide compared to WT [3]: more than 27 fold
Decrease in affinity of the FITC-phosphopeptide compared to WT [4]: > 42 fold

Polotyrin
GI50 [5]: a few hundred

Cc1cc2c(s1)c(=O)n(CC1CC1)c1n[nH]c(=S)n21 [compound 5]
IC50 [6]: 1.66 ± 0.04 µM
Cell efficacy (GI50) Mean ± SD [7]: N. S.
IC50 [8]: 0.0128 ± 0.0026 µM
PBD2 IC50 ± SD [9]: N. S.
PBD3 IC50 ± SD [10]: N. S.
Ki [11]: 0.41 µM

Cc1cc2c(s1)c(=O)n(CC1CC1)c1nnc(Sc3c([N+](=O)[O-])ncn3C)n21 [compound 6]
IC50 [6]: > 50 µM
GI50 ([7]; read-out: Cell efficacy (GI50) Mean ± SD): 3.13 ± 0.15 µM
Conversion of prodrug to active species by GSH (in words) [12]: complete conversion
Solubility (in words) [13]: low solubility
Interactions (Ki, µM), summary of PDSP screen (in words) [14]: None observed

O=C(CCCCC1SCC2NC(=O)NC21)NCCOCCOCCOCCOCCC(=O)NCCCn1c(=O)c2cc(F)ccc2n2c(=S)[nH]nc12 (centres unmarked) [compound 22]
IC50 [6]: 9.32 ± 0.17 µM
Pulldown of Plk1 from mixed total lysates (in words) [15]: precipitated the full-length Plk1; also recorded: specifically interacts with
Pulldown of Plk2 from mixed total lysates (in words) [16]: not Plk2 or Plk3
Pulldown of Plk3 from mixed total lysates (in words) [17]: not Plk2 or Plk3
